Assay results as given in patent US5814646A, “Inhibitors of amyloid beta-protein production” (Eli Lilly and Company, priority 1995, dated 1998).

System: Aβ production in 293 751 SWE and CHO 751 SWE cells (transfected with APP-751 Swedish mutation)
Assay: Aβ production inhibition activity in cells (Aβ ELISA of conditioned media, normalized for cytotoxicity by MTT)
Type: cell-based
Conditions: 5 μg/ml
Method: Two cell lines (human kidney cell line 293 and Chinese hamster ovary cell line CHO) were stably transfected with the gene for APP-751 containing the double mutation Lys651 -Met652 to Asn651 -Leu652 (APP-751 numbering) commonly called the Swedish mutation using the method described in Citron et al., (1992) Nature 360:672-674. The transfected cell lines were designated as 293 751 SWE and CHO 751 SWE, and were plated in Corning 96 well plates at 2.5×10^4 or 1×10^4 cells per well respectively in Dulbecco's minimal essential media plus 10% fetal bovine serum. Following overnight incubation at 37° C. in an incubator equilibrated with 10% carbon dioxide (CO2), the media were removed and replaced with 200 μL per well of media containing a test compound. After a two hour pretreatment period, the media were again removed and replaced with fresh media containing the test compound and the cells were incubated for an additional two hours.
Test compound stocks were prepared in DMSO such that at the final concentration used in the treatment, the concentration of DMSO did no exceed 0.5%. After treatment, plates were centrifuged in a Beckman GPR at 1200 rpm for five minutes at room temperature to pellet cellular debris from the conditioned media. From each well, 100 μL of conditioned media were transferred into an ELISA plate precoated with antibody 266 against βAP-13-28 (Seubert et al., supra.) and stored at 4° C. overnight. An ELISA assay employing labeled antibody 6C6 (against βAP-1-16) was run the next day to measure the amount of Aβ produced.
Cytotoxic effects of the test compounds were measured by a modification of the method of Hansen et al., (1989) J. Immun. Meth. 119:203-210. To the cells remaining in the tissue culture plate, was added 25 μL of a 3, (4,5-dimethylthiazol-2-yl)2,5-diphenyltetrazolium bromide (MTT) stock solution (5 mg/mL) to a final concentration of […]. Cells were incubated at 37° C. for one hour, and cellular activity was stopped by the addition of an equal volume of MTT lysis buffer (20% w/v sodium dodecylsulfate in 50% DMF, pH 4.7). Complete extraction was achieved by overnight shaking at room temperature. The difference in the OD562 nm and the OD650 nm was measured in a Molecular Devices UVmax microplate reader as an indicator of the cellular viability.
The results of the Aβ ELISA were fit to a standard curve and expressed as ng/mL Aβ peptide. In order to normalize for cytotoxicity, these Aβ results were divided by the MTT results and expressed as a percentage of the results from a drug -free control.
The test compounds were assayed for Aβ production inhibition activity in cells at […] using the test. The results presented in Table 1 are the mean and standard deviation of at least six replicate assays. IC50 means the concentration of test compound in micromoles/liter required to inhibit Aβ production by 50%.

Structure (SMILES)	inhibition at 5 µg/mL
CC(C)(C)c1ccc(Oc2cccc(C(Cc3ccccc3)N(O)C(=S)NCc3ccccc3)c2)cc1 (stereo not shown) [Compound 33]	16%
CCCCCCNC(=S)N(O)C(Cc1ccccc1)c1cccc(Oc2ccc(C(C)(C)C)cc2)c1 (stereo not shown) [Compound 34]	20%
Cc1cccc(CNC(=S)N(O)Cc2cccc(OCc3ccc(C(C)(C)C)cc3)c2)c1 [Compound 48]	29%
CCCCCCNC(=S)N(O)Cc1cccc(OCc2ccc(C(C)(C)C)cc2)c1 [Compound 50]	25%
CC(C)(C)c1ccc(COc2cccc(CN(O)C(=S)NCc3ccc(Cl)c(Cl)c3)c2)cc1 [Compound 51]	38%
CC(C)(C)c1ccc(COc2ccc(CN(O)C(=S)NCc3ccccc3)cc2)cc1 [Compound 52]	22%
ON(Cc1ccc(OCc2ccc(Cl)c(Cl)c2)cc1)C(=S)NCc1ccccc1 [Compound 54]	25%
CCCCCCNC(=S)N(O)Cc1ccc(OCc2ccc(Cl)c(Cl)c2)cc1 [Compound 55]	37%
ON(Cc1ccc(OCc2ccc(F)c(F)c2)cc1)C(=S)NCc1ccccc1 [Compound 56]	28%
CCCCCCNC(=S)N(O)Cc1ccc(OCc2ccc(F)c(F)c2)cc1 [Compound 57]	4%
Cc1ccc(C)c(COc2ccc(CN(O)C(=S)NCc3ccccc3)cc2)c1 [Compound 58]	32%
COc1cc(COc2ccc(CN(O)C(=S)NCc3ccccc3)cc2)cc(OC)c1 [Compound 60]	17%
CCCCCCNC(=S)N(O)Cc1ccc(OCc2cc(OC)cc(OC)c2)cc1 [Compound 61]	28%
CCCCc1ccc(COc2ccc(CN(O)C(=S)NCc3ccccc3)cc2)cc1 [Compound 62]	17%
CCCCCCNC(=S)N(O)Cc1ccc(OCc2ccc(CCCC)cc2)cc1 [Compound 63]	9%

Same assay, conditions: 10 μg/ml, % of drug-free control, normalized to MTT

Structure (SMILES)	inhibition at 10 µg/mL
CC(c1cccc(Oc2ccc(C(C)(C)C)cc2)c1)N(O)C(=S)NCc1ccc(Cl)c(Cl)c1 (stereo not shown) [Compound 2]	77%
Cc1ccc(CNC(=S)N(O)C(C)c2cccc(Oc3ccc(C(C)(C)C)cc3)c2)cc1C (stereo not shown) [Compound 9]	62%
COc1ccc(CNC(=S)N(O)C(C)c2cccc(Oc3ccc(C(C)(C)C)cc3)c2)cc1OC (stereo not shown) [Compound 11]	31%
CC(NC(=S)N(O)C(C)c1cccc(Oc2ccc(C(C)(C)C)cc2)c1)c1ccccc1 (stereo not shown) [Compound 13]	46%
CC(c1cccc(Oc2ccc(C(C)(C)C)cc2)c1)N(O)C(=S)NC(c1ccccc1)c1ccccc1 (stereo not shown) [Compound 14]	44%
CC(c1cccc(Oc2ccc(C(C)(C)C)cc2)c1)N(O)C(=S)NCc1ccc2c(c1)OCO2 (stereo not shown) [Compound 15]	28%
CCC(c1cccc(Oc2ccc(C(C)(C)C)cc2)c1)N(O)C(=S)Nc1cccc(C(F)(F)F)c1Cl (stereo not shown) [Compound 22]	10%
CCCCCCC(c1cccc(Oc2ccc(C(C)(C)C)cc2)c1)N(O)C(=S)Nc1ccc(Cl)c(C(F)(F)F)c1 (stereo not shown) [Compound 35]	9%
CCCCCCC(c1cccc(Oc2ccc(C(C)(C)C)cc2)c1)N(O)C(=S)NCc1ccccc1 (stereo not shown) [Compound 36]	26%
CCCCCCNC(=S)N(O)C(CCCCCC)c1cccc(Oc2ccc(C(C)(C)C)cc2)c1 (stereo not shown) [Compound 37]	0%
CC(c1cccc(Oc2ccc(C(C)(C)C)cc2)c1)N(C(=S)NCc1ccccc1)N(C)C (stereo not shown) [Compound 38]	32%
CCCCCCNC(=S)N(Cc1cccc(Oc2ccc(C(C)(C)C)cc2)c1)OC [Compound 43]	16%
CN(Cc1cccc(Oc2ccc(C(C)(C)C)cc2)c1)C(=S)NCc1ccc(Cl)c(Cl)c1 [Compound 44]	40%
CC(c1cccc(Oc2ccc(C(C)(C)C)cc2)c1)N(O)C(=O)NCc1ccccc1 (stereo not shown) [Compound 46]	68%
CC(NC(=S)NCc1ccccc1)c1cccc(Oc2ccccc2)c1 (stereo not shown) [Compound 47]	8%
ON(Cc1ccc(OCc2c(Cl)cccc2Cl)cc1)C(=S)NCc1ccccc1 [Compound 64]	18%
Cc1cccc(CNC(=S)N(O)Cc2ccc(OCc3c(Cl)cccc3Cl)cc2)c1 [Compound 65]	7%
CCCCOc1ccc(COc2cccc(CN(O)C(=S)NCc3ccccc3)c2)cc1 [Compound 66]	21%

Same assay, conditions: 2 h pretreatment + 2 h incubation

Structure (SMILES)	IC50
CC(c1cccc(Oc2ccc(C(C)(C)C)cc2)c1)N(O)C(=S)NCc1ccccc1 (stereo not shown) [Compound 1]	11.2 µM
CC(c1cccc(Oc2ccc(C(C)(C)C)cc2)c1)N(O)C(=S)NCc1ccc(Cl)cc1 (stereo not shown) [Compound 3]	11.7 µM
CC(c1cccc(Oc2ccc(C(C)(C)C)cc2)c1)N(O)C(=S)NCc1ccc(F)cc1 (stereo not shown) [Compound 4]	11.1 µM
Cc1ccccc1CNC(=S)N(O)C(C)c1cccc(Oc2ccc(C(C)(C)C)cc2)c1 (stereo not shown) [Compound 5]	10.3 µM
Cc1cccc(CNC(=S)N(O)C(C)c2cccc(Oc3ccc(C(C)(C)C)cc3)c2)c1 (stereo not shown) [Compound 6]	11.1 µM
Cc1ccc(CNC(=S)N(O)C(C)c2cccc(Oc3ccc(C(C)(C)C)cc3)c2)cc1 (stereo not shown) [Compound 7]	15.6 µM
Cc1ccc(CNC(=S)N(O)C(C)c2cccc(Oc3ccc(C(C)(C)C)cc3)c2)cc1Cl (stereo not shown) [Compound 8]	9 µM
COc1ccc(CNC(=S)N(O)C(C)c2cccc(Oc3ccc(C(C)(C)C)cc3)c2)cc1 (stereo not shown) [Compound 10]	> 20 µM
CC(c1cccc(Oc2ccc(C(C)(C)C)cc2)c1)N(O)C(=S)Nc1cccc2ccccc12 (stereo not shown) [Compound 12]	> 20 µM
CC(c1cccc(Oc2ccc(C(C)(C)C)cc2)c1)N(O)C(=S)NCc1cccc(Cl)c1 (stereo not shown) [Compound 16]	12 µM
CC(c1cccc(Oc2ccc(C(C)(C)C)cc2)c1)N(O)C(=S)NCc1ccc(Cl)cc1Cl (stereo not shown) [Compound 17]	5.7 µM
CC(c1cccc(Oc2ccc(C(C)(C)C)cc2)c1)N(O)C(=S)NCc1cccc(F)c1 (stereo not shown) [Compound 18]	18.3 µM
CCCCCCNC(=S)N(O)C(C)c1cccc(Oc2ccc(C(C)(C)C)cc2)c1 (stereo not shown) [Compound 19]	11 µM
CCC(c1cccc(Oc2ccc(C(C)(C)C)cc2)c1)N(O)C(=S)NCc1ccccc1 (stereo not shown) [Compound 20]	3.6 µM
CCC(c1cccc(Oc2ccc(C(C)(C)C)cc2)c1)N(O)C(=S)NCc1cccc(OC)c1 (stereo not shown) [Compound 21]	5.6 µM
CCC(c1cccc(Oc2ccc(C(C)(C)C)cc2)c1)N(O)C(=S)Nc1ccc(Cl)c(C(F)(F)F)c1 (stereo not shown) [Compound 23]	11 µM

Structure (SMILES)	IC50
CCCCCCNC(=S)N(O)C(CC)c1cccc(Oc2ccc(C(C)(C)C)cc2)c1 (stereo not shown) [Compound 24]	8.8 µM
CCCCOc1ccc(NC(=S)N(O)C(CC)c2cccc(Oc3ccc(C(C)(C)C)cc3)c2)cc1 (stereo not shown) [Compound 25]	16 µM
CC(C)(C)c1ccc(Oc2cccc(CN(O)C(=S)NCc3ccccc3)c2)cc1 [Compound 26]	3.4 µM
CCCCCCNC(=S)N(O)Cc1cccc(Oc2ccc(C(C)(C)C)cc2)c1 [Compound 27]	9.4 µM
CC(C)(C)c1ccc(Oc2cccc(CN(O)C(=S)NCc3ccc(Cl)c(Cl)c3)c2)cc1 [Compound 28]	4.2 µM
CCCC(c1cccc(Oc2ccc(C(C)(C)C)cc2)c1)N(O)C(=S)NCc1ccccc1 (stereo not shown) [Compound 29]	7.5 µM
CCCC(c1cccc(Oc2ccc(C(C)(C)C)cc2)c1)N(O)C(=S)NCc1cccc(Cl)c1 (stereo not shown) [Compound 30]	9.1 µM
CCCC(c1cccc(Oc2ccc(C(C)(C)C)cc2)c1)N(O)C(=S)NCc1ccc(Cl)c(Cl)c1 (stereo not shown) [Compound 31]	10 µM
CCCC(c1cccc(Oc2ccc(C(C)(C)C)cc2)c1)N(O)C(=S)NCc1cccc(C)c1 (stereo not shown) [Compound 32]	9 µM
CC(NC(=S)NCc1ccccc1)c1cccc(Oc2ccc(C(C)(C)C)cc2)c1 (stereo not shown) [Compound 39]	10.5 µM
CC(C)(C)c1ccc(Oc2cccc(CNC(=S)NCc3ccccc3)c2)cc1 [Compound 40]	9.1 µM
CC(C)(C)c1ccc(Oc2cccc(CNC(=S)NCc3ccc(Cl)c(C(F)(F)F)c3)c2)cc1 [Compound 41]	4 µM
CCCCCCNC(=S)NCc1cccc(Oc2ccc(C(C)(C)C)cc2)c1 [Compound 42]	17.2 µM
CCCCc1ccc(Oc2cccc(C(C)N(O)C(=S)NCc3ccccc3)c2)cc1 (stereo not shown) [Compound 45]	9.2 µM
CC(C)(C)c1ccc(COc2cccc(CN(O)C(=S)NCc3ccccc3)c2)cc1 [Compound 49]	6.7 µM
